These results are taken from patent publication US20240343733A1, “COMPOUNDS FOR TARGETING DEGRADATION OF IRAK4 PROTEINS” (BIOGEN MA INC., priority 2021, published 2024).

The target of the assay is T1, IRAK4 (Homo sapiens, UniProt Q9NWZ3).
T1 construct: 293Tcells expressing HiBiT-tagged IRAK4 were then added into 384-well plates
T1 sequence (Q9NWZ3 1-460): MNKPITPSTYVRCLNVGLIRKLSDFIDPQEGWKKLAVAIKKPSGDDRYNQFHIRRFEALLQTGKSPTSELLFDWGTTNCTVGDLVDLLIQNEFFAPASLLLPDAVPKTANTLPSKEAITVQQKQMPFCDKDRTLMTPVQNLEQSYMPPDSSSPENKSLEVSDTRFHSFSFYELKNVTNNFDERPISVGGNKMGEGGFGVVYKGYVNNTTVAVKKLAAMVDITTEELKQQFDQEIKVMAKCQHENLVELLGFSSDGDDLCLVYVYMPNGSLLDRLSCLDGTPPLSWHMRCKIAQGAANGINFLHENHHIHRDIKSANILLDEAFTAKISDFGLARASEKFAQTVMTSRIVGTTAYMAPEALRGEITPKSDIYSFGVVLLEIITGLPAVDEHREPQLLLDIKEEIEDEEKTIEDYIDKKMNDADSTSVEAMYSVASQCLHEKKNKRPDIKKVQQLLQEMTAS
The assay can be described thus: IRAK4 Degradation Assay, HiBiT Method. The note with it: 293T cells expressing HiBiT-tagged IRAK4, 6 hours. In kind it is cell-based. An outline of the steps: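 293T cells with HiBiT knocked in at the C-terminus of endogenous IRAK4, 10,000 per well, treated 6 h at 37 °C with an 11-point half-log series ([…]), in duplicate. Remaining IRAK4 read by Nano-Glo HiBiT lytic luminescence against DMSO-only and media-only controls.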
A general note: With HiBiT, luminescence reflects the tagged protein that the partner subunit can reach.
`CC(C)Oc1cc2nn(C3CCN(C(=O)CN4CCC(c5ccc(NC6CCC(=O)NC6=O)cc5F)CC4)CC3)cc2cc1C(=O)Nc1cccc(C(F)F)n1` (stereo not shown) [Example 64, N-(6-(difluoromethyl)pyridin-2-yl)-2-(1-(2-(4-(4-((2,6-dioxopiperidin-3-yl)amino)-2-fluorophenyl)piperidin-1-yl)acetyl)piperidin-4-yl)-6-isopropoxy-2H-indazole-5-carboxamide] yielded a DC50 of 500 to 1000 nM.

Molecule `CC(C)Oc1cc2nc([C@H]3CC[C@H](CN4CCC(c5ncc(NC6CCC(=O)NC6=O)cc5F)CC4)CC3)cn2cc1C(=O)Nc1cccn(C2CC2)c1=O` (stereo partly shown) [Example 174, N-(1-cyclopropyl-2-oxo-1,2-dihydropyridin-3-yl)-2-((1r,4r)-4-((4-(5-((2,6-dioxopiperidin-3-yl)amino)-3-fluoropyridin-2-yl)piperidin-1-yl)methyl)cyclohexyl)-7-isopropoxyimidazo[1,2-a]pyridine-6-carboxamide] registered a DC50 of 10 to 100 nM. Take `CC(C)Oc1cc2nc(C3CCN(C(=O)CN4CCN(c5ccc(C6CCC(=O)NC6=O)cn5)CC4)CC3)cn2cc1C(=O)Nc1cccn([C@H]2C[C@H]2F)c1=O` (stereo partly drawn) [Example 163, 2-(1-(2-(4-(5-(2,6-dioxopiperidin-3-yl)pyridin-2-yl)piperazin-1-yl)acetyl)piperidin-4-yl)-N-(1-((1S,2R)-2-fluorocyclopropyl)-2-oxo-1,2-dihydropyridin-3-yl)-7-isopropoxyimidazo[1,2-a]pyridine-6-carboxamide]: the DC50 is less than 10 nM. For `CC(C)Oc1cc2nc(C3CCN(C(=O)NC4CCN(c5ccc(C6CCC(=O)NC6=O)cn5)CC4)CC3)cn2cc1C(=O)Nc1cnn2cccnc12` (stereo not shown) [Example 157, 2-[1-[[1-[5-(2,6-dioxo-3-piperidyl)-2-pyridyl]-4-piperidyl]carbamoyl]-4-piperidyl]-7-isopropoxy-N-pyrazolo[1,5-a]pyrimidin-3-yl-imidazo[1,2-a]pyridine-6-carboxamide], the DC50 is less than 10 nM. Consider `CC(C)Oc1cc2nn([C@H]3CC[C@H](CN4CCC(c5ccc6c(N7CCC(=O)NC7=O)nn(C)c6c5)CC4)CC3)cc2cc1C(=O)Nc1cccn([C@H]2C[C@H]2F)c1=O` [Example 144, 2-((1r,4S)-4-((4-(3-(2,4-dioxotetrahydropyrimidin-1(2H)-yl)-1-methyl-1H-indazol-6-yl)piperidin-1-yl)methyl)cyclohexyl)-N-(1-((1S,2R)-2-fluorocyclopropyl)-2-oxo-1,2-dihydropyridin-3-yl)-6-isopropoxy-2H-indazole-5-carboxamide], for which the DC50 is less than 10 nM.

With `CC(C)Oc1cc2nc([C@H]3CC[C@H](CN4CC[C@H](c5ccc6c(N7CCC(=O)NC7=O)nn(C)c6c5)[C@H](O)C4)CC3)cn2cc1C(=O)Nc1cccn(C2CC2)c1=O` [Example 178, N-(1-cyclopropyl-2-oxo-1,2-dihydropyridin-3-yl)-2-((S,4r)-4-(((3S,4R)-4-(3-(2,4-dioxotetrahydropyrimidin-1(2H)-yl)-1-methyl-1H-indazol-6-yl)-3-hydroxypiperidin-1-yl)methyl)cyclohexyl)-7-isopropoxyimidazo[1,2-a]pyridine-6-carboxamide], the DC50 is less than 10 nM. Take `CO[C@H]1CN(C[C@H]2CC[C@H](n3cc4cc(C(=O)Nc5cccn([C@H]6C[C@H]6F)c5=O)c(OC(C)C)cc4n3)CC2)CC[C@H]1c1ccc2c(N3CCC(=O)NC3=O)nn(C)c2c1` [Example 134, 2-((1R,4S)-4-(((3R,4S)-4-(3-(2,4-dioxotetrahydropyrimidin-1(2H)-yl)-1-methyl-1H-indazol-6-yl)-3-methoxypiperidin-1-yl)methyl)cyclohexyl)-N-(1-((1S,2R)-2-fluorocyclopropyl)-2-oxo-1,2-dihydropyridin-3-yl)-6-isopropoxy-2H-indazole-5-carboxamide]: the DC50 was less than 10 nM.

Molecule `CC(C)Oc1cc2nc(C3CCN(CC(=O)N4CCC(c5ccc(NC6CCC(=O)NC6=O)cc5)CC4)CC3)cn2cc1C(=O)Nc1ccccn1` (stereo not shown) [Example 109, 2-[1-[2-[4-[4-[(2,6-dioxo-3-piperidyl)amino]phenyl]-1-piperidyl]-2-oxo-ethyl]-4-piperidyl]-7-isopropoxy-N-(2-pyridyl)imidazo[1,2-a]pyridine-6-carboxamide] returned a DC50 of 10 to 100 nM.

`CC(C)Oc1nc2nc(C3CCN(C(=O)CC4CC5(C4)CN(c4ccc(C6CCC(=O)NC6=O)cn4)C5)CC3)cn2cc1C(=O)Nc1cccn([C@H]2C[C@H]2F)c1=O` (stereo partly shown) [Example 196] yielded a DC50 of less than 10 nM. In the case of `CC(C)Oc1cc2nc([C@H]3CC[C@H](CN4CC5(CCCN5Cc5ccc(OC6CCC(=O)NC6=O)cc5)C4)CC3)cn2cc1C(=O)Nc1cccc(C(F)F)n1` (stereo partly shown) [Example 46, N-[6-(difluoromethyl)-2-pyridyl]-2-[4-[[5-[[4-[(2,6-dioxo-3-piperidyl)oxy]phenyl]methyl]-2,5-diazaspiro[3.4]octan-2-yl]methyl]cyclohexyl]-7-isopropoxy-imidazo[1,2-a]pyridine-6-carboxamide], the 50% degradation concentration (DC50) fell in the range of 10 to 100 nM.

Regarding `CC(C)Oc1cc2nn([C@H]3CC[C@H](CN4CCOC[C@@H]4Cc4ccc(OC5CCC(=O)NC5=O)cc4)CC3)cc2cc1C(=O)Nc1cccn([C@H]2C[C@H]2F)c1=O` (stereo partly drawn) [Example 135, 2-((1S,4S)-4-(((3S)-3-(4-((2,6-dioxopiperidin-3-yl)oxy)benzyl)morpholino)methyl)cyclohexyl)-N-(1-((1S,2R)-2-fluorocyclopropyl)-2-oxo-1,2-dihydropyridin-3-yl)-6-isopropoxy-2H-indazole-5-carboxamide], the DC50 is less than 10 nM. Regarding `CC(C)Oc1cc2nc([C@H]3CC[C@H](CN4CCC(c5ccc(NC6CCC(=O)NC6=O)cc5)C(F)(F)C4)CC3)cn2cc1C(=O)Nc1cccc(C(F)F)n1` (stereo partly shown) [Example 36, N-[6-(difluoromethyl)-2-pyridyl]-2-[4-[[4-[4-[(2,6-dioxo-3-piperidyl)amino]phenyl]-3,3-difluoro-1-piperidyl]methyl]cyclohexyl]-7-isopropoxy-imidazo[1,2-a]pyridine-6-carboxamide], the DC50 fell in the range of 100 to 500 nM.

In turn, `CC(C)Oc1cc2nc([C@H]3CC[C@H](CN(C)C4CCN(c5ccc6c(c5)n(C)c(=O)n6C5CCC(=O)NC5=O)CC4)CC3)cn2cc1C(=O)Nc1cccc(C(F)F)n1` (stereo partly shown) [Example 27, N-[6-(difluoromethyl)-2-pyridyl]-2-[4-[[[1-[1-(2,6-dioxo-3-piperidyl)-3-methyl-2-oxo-benzimidazol-5-yl]-4-piperidyl]-methyl-amino]methyl]cyclohexyl]-7-isopropoxy-imidazo[1,2-a]pyridine-6-carboxamide] yielded a half-maximal degradation concentration (DC50) of 10 to 100 nM. Then `CC(C)Oc1cc2nc([C@H]3CC[C@H](CN4CCC(c5ccc(C6CCC(=O)NC6=O)cc5F)CC4)CC3)cn2cc1C(=O)Nc1cccc(C(F)(F)F)n1` (stereo partly shown) [Example 6, 2-[4-[[4-[4-(2,6-dioxo-3-piperidyl)-2-fluoro-phenyl]-1-piperidyl]methyl]cyclohexyl]-7-isopropoxy-N-[6-(trifluoromethyl)-2-pyridyl]imidazo[1,2-a]pyridine-6-carboxamide], with 100 to 500 nM; and `CC(C)Oc1cc2nc([C@H]3CC[C@H](CN(C)C4CCN(c5ccc(C6CCC(=O)NC6=O)cc5)CC4(F)F)CC3)cn2cc1C(=O)Nc1cccc(C(F)F)n1` (stereo partly shown) [Example 42, N-[6-(difluoromethyl)-2-pyridyl]-2-[4-[[[1-[4-(2,6-dioxo-3-piperidyl)phenyl]-3,3-difluoro-4-piperidyl]-methyl-amino]methyl]cyclohexyl]-7-isopropoxy-imidazo[1,2-a]pyridine-6-carboxamide], with 100 to 500 nM; and `CC(C)Oc1cc2nc(C3CCN(C(=O)CN4CCC(c5ccc(NC6CCC(=O)NC6=O)nc5)CC4)CC3)cn2cc1C(=O)Nc1cccc(C(F)F)n1` (stereo not shown) [Example 86, N-[6-(difluoromethyl)-2-pyridyl]-2-[1-[2-[4-[6-[(2,6-dioxo-3-piperidyl)amino]-3-pyridyl]-1-piperidyl]acetyl]-4-piperidyl]-7-isopropoxy-imidazo[1,2-a]pyridine-6-carboxamide], with 10 to 100 nM.

In turn, `CC(C)Oc1cc2nc([C@H]3CC[C@H](CN4CCC(c5ccc(C6(C)CCC(=O)NC6=O)cc5)CC4)CC3)cn2cc1C(=O)Nc1cccc(C(F)F)n1` (stereo partly shown) [Example 40, N-[6-(difluoromethyl)-2-pyridyl]-7-isopropoxy-2-[4-[[4-[4-(3-methyl-2,6-dioxo-3-piperidyl)phenyl]-1-piperidyl]methyl]cyclohexyl]imidazo[1,2-a]pyridine-6-carboxamide] registered a DC50 of 100 to 500 nM. For `CC(C)Oc1cc2nn(C3CCN(C(=O)CC4(O)CCN(c5cc(F)c(C6CCC(=O)NC6=O)cc5F)CC4)CC3)cc2cc1C(=O)Nc1cccc(C(F)F)n1` (stereo not shown) [Example 67, N-(6-(difluoromethyl)pyridin-2-yl)-2-(1-(2-(1-(4-(2,6-dioxopiperidin-3-yl)-2,5-difluorophenyl)-4-hydroxypiperidin-4-yl)acetyl)piperidin-4-yl)-6-isopropoxy-2H-indazole-5-carboxamide], the DC50 was less than 10 nM. The molecule `CC(C)Oc1nc2nc(C3CCN(C(=O)N(C)C4CCN(c5ncc(C6CCC(=O)NC6=O)cc5F)CC4)CC3)cn2cc1C(=O)Nc1cccn(C2CC2)c1=O` (stereo not shown) [Example 195] returned a DC50 of 10 to 100 nM.

A word on the DC50: it is the midpoint of the concentration-degradation curve. Low readings indicate a more potent degrader, high ones a less potent degrader.
